Experimental data published in patent US20210338846A1, “COMPETITIVE PROSTATE-SPECIFIC MEMBRANE ANTIGEN (PSMA) BINDING AGENTS FOR REDUCTION OF NON-TARGET ORGAN UPTAKE OF RADIOLABELED PSMA INHIBITORS FOR PSMA POSITIVE TUMOR IMAGING AND RADIOPHARMACEUTICAL THERAPY” (The Johns Hopkins University, priority 2018, published 2021).
Where two headings read alike, the source gives them in different places.

Legend:
[1] = test system: PSMA+ PC-3 PiP and PSMA− PC-3 flu tumors; assay type: in vivo; details: early time points
[2] = test system: PSMA+ PC-3 PiP and PSMA− PC-3 flu tumors
[3] = 1 h, co-injection 0.5 nmole YC-I-27
[4] = 4 h, co-injection 0.5 nmole YC-I-27
[5] = 24 h, co-injection 0.5 nmole YC-I-27

Compound: O=C(O)CC[C@H](NC(=O)N[C@@H](CCCCN(Cc1ccc(I)cc1)C(=O)CCCCNC(=O)CN1CCN(CC(=O)O)CCN(CC(=O)O)CCN(CC(=O)O)CC1)C(=O)O)C(=O)O [VK-02-90]
- effect of competing inhibitor on uptake of [125I]VK-02-90-Lu in kidneys, salivary glands and lacrimal glands [1]: effective CI

Compound: O=C(O)CC[C@H](NC(=O)N[C@@H](CCCCN(Cc1ccc([125I])cc1)C(=O)CCCCNC(=O)CN1CCN(CC(=O)O)CCN(CC(=O)O)CCN(CC(=O)O)CC1)C(=O)O)C(=O)O [[^125I]VK-02-90]
- Biodistribution: Blood ([2]; 1 h, No CI): 1.1 ± 0.3 % injected dose/gram
- Biodistribution: Flu tumor ([2]; 1 h, No CI): 1.4 ± 0.6 % injected dose/gram
- Biodistribution: Lacrimal gland ([2]; 1 h, No CI): 17.4 ± 6.0 % injected dose/gram
- Biodistribution: PiP tumor ([2]; 1 h, No CI): 58 ± 14 % injected dose/gram
- Biodistribution: Salivary gland ([2]; 1 h, No CI): 5.1 ± 3.4 % injected dose/gram
- Biodistribution: kidneys ([2]; 1 h, No CI): 194 ± 25 % injected dose/gram
- Biodistribution: spleen ([2]; 1 h, No CI): 40 ± 16 % injected dose/gram
- Biodistribution: stomach ([2]; 1 h, No CI): 1.1 ± 0.3 % injected dose/gram
- Biodistribution: Blood [2, 3]: 0.45 ± 0.06 % injected dose/gram
- Biodistribution: Flu tumor [2, 3]: 0.37 ± 0.05 % injected dose/gram
- Biodistribution: Lacrimal gland [2, 3]: 0.75 ± 0.33 % injected dose/gram
- Biodistribution: PiP tumor [2, 3]: 35 ± 10 % injected dose/gram
- Biodistribution: Salivary gland [2, 3]: 0.46 ± 0.06 % injected dose/gram
- Biodistribution: kidneys [2, 3]: 10.0 ± 1.1 % injected dose/gram
- Biodistribution: spleen [2, 3]: 0.8 ± 0.14 % injected dose/gram
- Biodistribution: stomach [2, 3]: 0.33 ± 0.07 % injected dose/gram
- Biodistribution: thyroid [2, 3]: 0.5 ± 0.3 % injected dose/gram
- Biodistribution: Blood ([2]; 4 h, No CI): 0.2 ± 0.03 % injected dose/gram
- Biodistribution: Flu tumor ([2]; 4 h, No CI): 0.3 ± 0.1 % injected dose/gram
- Biodistribution: Lacrimal gland ([2]; 4 h, No CI): 1.9 ± 0.5 % injected dose/gram
- Biodistribution: PiP tumor ([2]; 4 h, No CI): 38 ± 13 % injected dose/gram
- Biodistribution: Salivary gland ([2]; 4 h, No CI): 0.7 ± 0.2 % injected dose/gram
- Biodistribution: kidneys ([2]; 4 h, No CI): 162 ± 3.5 % injected dose/gram
- Biodistribution: spleen ([2]; 4 h, No CI): 4.7 ± 1.2 % injected dose/gram
- Biodistribution: stomach ([2]; 4 h, No CI): 0.4 ± 0.2 % injected dose/gram
- Biodistribution: Blood [2, 4]: 0.02 ± 0.004 % injected dose/gram
- Biodistribution: Flu tumor [2, 4]: 0.7 ± 0.01 % injected dose/gram
- Biodistribution: Lacrimal gland [2, 4]: 0.14 ± 0.08 % injected dose/gram
- Biodistribution: PiP tumor [2, 4]: 35 ± 5.0 % injected dose/gram
- Biodistribution: Salivary gland [2, 4]: 0.08 ± 0.04 % injected dose/gram
- Biodistribution: kidneys [2, 4]: 2.2 ± 0.3 % injected dose/gram
- Biodistribution: spleen [2, 4]: 0.2 ± 0.1 % injected dose/gram
- Biodistribution: stomach [2, 4]: 0.2 ± 0.07 % injected dose/gram
- Biodistribution: thyroid [2, 4]: 0.14 ± 0.1 % injected dose/gram
- Biodistribution: Blood ([2]; 24 h, No CI): 0.02 ± 0.01 % injected dose/gram
- Biodistribution: Flu tumor ([2]; 24 h, No CI): 0.04 ± 0.02 % injected dose/gram
- Biodistribution: Lacrimal gland ([2]; 24 h, No CI): 0.5 ± 0.2 % injected dose/gram
- Biodistribution: PiP tumor ([2]; 24 h, No CI): 51 ± 7 % injected dose/gram
- Biodistribution: Salivary gland ([2]; 24 h, No CI): 0.3 ± 0.3 % injected dose/gram
- Biodistribution: kidneys ([2]; 24 h, No CI): 31 ± 14 % injected dose/gram
- Biodistribution: spleen ([2]; 24 h, No CI): 0.7 ± 0.4 % injected dose/gram
- Biodistribution: stomach ([2]; 24 h, No CI): 0.05 ± 0.03 % injected dose/gram
- Biodistribution: Blood [2, 5]: 0.001 ± 0.001 % injected dose/gram
- Biodistribution: Flu tumor [2, 5]: 0.02 ± 0.01 % injected dose/gram
- Biodistribution: Lacrimal gland [2, 5]: 0.02 ± 0.04 % injected dose/gram
- Biodistribution: PiP tumor [2, 5]: 33 ± 6 % injected dose/gram
- Biodistribution: Salivary gland [2, 5]: 0.02 ± 0.01 % injected dose/gram
- Biodistribution: kidneys [2, 5]: 0.3 ± 0.03 % injected dose/gram
- Biodistribution: spleen [2, 5]: 0.05 ± 0.04 % injected dose/gram
- Biodistribution: stomach [2, 5]: 0.06 ± 0.02 % injected dose/gram
- Biodistribution: thyroid [2, 5]: 0.04 ± 0.08 % injected dose/gram
- PSMA+ tumor uptake (in words) ([2]; Tables 1, 2, and 3): high PSMA+ tumor uptake
- kidney uptake (in words) ([2]; Tables 1, 2, and 3): high initial kidney uptake which clears over time
